Values of other authors as cited in US20100190739A1, “Rapidly Dissolving Vitamin Formulation and Methods of Using the Same” (FLEMING AND COMPANY, PHARMACEUTICALS, priority 2008, published 2010).

Legend:
[1] = Institute of Medicine
[2] = not given; remark: listed apart in the source

## [Cr] [Chromium, chromium]
Some evidence
  Doses that can cause adverse reactions: above 250 μg

## [Zn] [Zinc, zinc]
[1]
  Tolerable upper limit: 40 mg/day
In vivo
  Doses at which acute toxicity can occur (as low as): ≥ 30 mg/day
  Doses at which acute toxicity is more common: exceeding 100 mg/day

## [Se] [Selenium, selenium]
[1]
  Tolerable upper limit: 0.4 mg/day

## [Mn+2] [Manganese, manganese]
[2]
  Fraction of dietary intake absorbed: 3-5%
[1]
  Tolerable upper limit: 11 mg/day

## Cc1ncc(C[n+]2csc(CCO)c2C)c(N)n1 [Example B1, thiamine]
Doses as high as, taken for extended periods of time
  Dose with no evidence of oral toxicity: 200 mg

## cobalamin [Example B12]
In vivo
  Level at which toxicity has not been demonstrated: 10,000 × the recommended daily allowance (RDA)

## Cc1ncc(CO)c(CO)c1O [Example B6, pyridoxine]
[1]
  Tolerable upper limit: 100 mg/day
Long term study
  Dose showing potential damage to sensory nerves: 200 mg/day

## [Mo] [Molybdenum, molybdenum]
In vivo
  Intake causing significant losses of copper: above 500 μg/day

## O=C(O)c1cccnc1 [niacin]
[1]
  Tolerable upper limit: 35 mg/day
